Here are results for ten substances from patent US20130296224A1, “METHOD FOR TREATMENT OF INFLAMMATORY DISEASE AND DISORDER” (HealOr Ltd., priority 2011, published 2013).

Experiment [1] has as its system EAE mice. The experiment in a line: Experimental allergic encephalomyelitis (EAE), MOG35-55/CFA immunized mice. It is filed as in vivo, C57BL/6J mice. Also noted: EAE severity / average group score at the end of the experiment (day 42): dose or concentration left out as unconfirmed. As to conditions: for Score on day 18 / Score on day 29 / Score on day 37: EAE scale 0-6; for Number of dead mice during 49 days: n=7 per group; for EAE score on the initial day (in brackets): scale 0-6.

In experiment [2] the test system is splenocytes stimulated with LPS. Put plainly: Cytokine secretion in splenocytes stimulated with LPS, treated with PKCδ activator. It is filed as cell-based. As for the experimental part:
(§1) PKCδ activators were also shown to have an anti-inflammatory effect on keratinocytes and splenocytes. Keratinocytes were derived from newborn BALB/C mice skin. The cells were incubated for 5 days in 24 wells plate. Cells were then incubated with PBS−/− as control or stimulated by LPS or TNFα. The PKCδ inhibitor DAP-1 (SEQ ID NO: 34) was added. Medium containing secreted cytokines was collected after 48 hr and analyzed using ELISA. FIG. 43 is a tabular summary showing cytokine secretion in splenocytes stimulated with LPS. FIG. 44 is a tabular summary of cytokine secretion in keratinocytes stimulated by TNFα.

The test system of experiment [3] is keratinocytes stimulated by TNFα. The experiment in a line: Cytokine secretion in stimulated keratinocytes treated with PKCδ activator (ELISA). It is filed as cell-based, BALB/C mice. As to conditions: medium collected after 48 hr. The method, then: as §1
For experiment [4], the system named is activated keratinocytes. Put plainly: Cytokine secretion in LPS, TNFα or IL-17 activated keratinocytes treated with peptide PKCα inhibitors (ELISA). As to conditions: for cytokine secretion in keratinocytes stimulated by LPS, TNFα, or IL-17: medium collected after 48 hr, ELISA; for cytokine secretion from LPS and TNFα activated keratinocytes: FIGS. 19 to 23; for cytokine secretion from IL-17A activated keratinocytes: FIGS. 24 to 27. It is filed as cell-based, BALB/C mice. The method, then:
To determine their effects, keratinocytes were derived from newborn BALB/C mice skin. The cells were incubated for 5 days in 24 wells plate. Cells were then incubated with PBS −/− as control or stimulated by LPS, TNFα, or IL-17. PKCα inhibitors were added as indicated. Medium containing secreted cytokines was collected after 48 hr and analyzed using ELISA. FIG. 50 is a tabular summary of cytokine secretion.

In experiment [5] the test system is activated macrophages (MAC-2). The experiment in a line: Macrophage activation in skin wound (MAC-2 staining). Format: in vivo, C57BL/6J mouse. As to conditions: daily treatment, 5 days; control vs 10 μg p=0.0028. As for the experimental part: The effect of MPDY-1 on macrophage activation was also shown by MAC-2 staining. MAC-2 is a specific marker for activated macrophages. […] A two-cm longitudinal incision was done as described above. Animals were treated daily with DPBS^−/− (Control) or MPDY-1 in the specified concentrations (n=6). After 5 days immunohistochemical staining was performed utilizing anti-MAC-2 antibodies. Bar […]. (*p(control Vs. MPDY-1 10 μg)=0.0028).

Experiment [6] relates to macrophages (Iba-1). The experiment in a line: Macrophage infiltration in skin wound (Iba-1 staining). As to conditions: daily treatment, five days post-wounding. It is filed as in vivo, C57BL/6J mouse. As for the experimental part: The effect of MPDY-1 on macrophage infiltration was also shown by Iba-1 staining. Iba-1 is a general marker for macrophages. […] As above, a two-cm longitudinal incision was done on the upper back of a C57BL/6J mouse. Following wounding, a sterile pad was sutured to the mouse's skin. Animals were treated daily with MPDY-1 (n=6). Five days post-wounding, when inflammatory phase reaches its peak, the mice were sacrificed, skin tissues were embedded in paraffin and immunohistochemical staining was performed utilizing anti-Iba-1 antibodies.

Experiment [7] concerns histamine induced pruritus. Put plainly: Histamine prick test model of pruritus. As to conditions: topical application on forearm, photographs at 0, 10, 20, 30 minutes. It is filed as in vivo, healthy volunteers. The method, then:
Forearms of individual subjects were injected with histamine solution and placebo. The formulation of Example 4 was topically applied with MPDY-1 at various concentrations and pruritus was assessed over a time course as shown in FIGS. 39-42.
This test was performed by placing a drop of a solution containing a possible allergen on the skin, and a series of scratches or needle pricks allow the solution to enter the skin. The extract enters into the outer layer of the skin (epidermis) using a fine needle (such as a. 26G disposable needle). This testing is not painful, and generally there is no bleeding involved since the needle only scratches the surface of the skin. If the skin develops a red, raised itchy area (called a wheal), it is as a result of allergic reaction to that allergen. This is called a positive reaction. A drop of extract is introduced through a fine needle (such as a No. 26 disposable needle). The test causes no discomfort and minimal trauma so that controls and negative test show only the site of the prick; if anything.
26G needles were utilized to introduce histamine stock (Histatrol Positive Control Histamine, 1 mg/ml, code #HIST14999V, Trupharm). The test was conducted on healthy volunteers in a double-blind, randomized test. The formulations were applied on the forearms. […]

Experiment [8] has as its system IKK. Put plainly: TNFα induced IKK activation in keratinocytes (Western blot phospho-IKKa/b Ser176/180). As to conditions: 1 hour pretreatment, TNFα 35 ng/ml 15 minutes. Format: cell-based, Murine. The method, then:
Murine primary keratinocytes were grown for 4 days to full confluence in Low Ca^+2 MEM. Cells were pretreated with designated concentration of MPDY-1 as described in the figure for 1 hour, prior to TNFα induction. Following MPDY-1 pretreatment, cells were incubated with TNFα 35 ng/ml for 15 minutes. Reaction was stopped by adding ice-cold dPBS−/− and keratinocytes were homogenized in RIPA buffer. Samples were subjected to SDS PAGE Western Blot analysis, utilizing phospho-IKKa/b (Ser176/180 antibody).

The mark [9] stands for this setting: 0.1 mg/kg i.p. three times a week.
The mark [10] stands for this setting: 1 mg/kg i.p. three times a week.

The star is where a group is joined. Palmitoyl = CCCCCCCCCCCCCCCC(=O)*; Myristoyl = CCCCCCCCCCCCCC(=O)*

For the substance “CRAMP: comparison treatment in the EAE study (0.2 and 2 mg/kg); not further described (ISRLAGLLRKGGEKIGEKLKKIGQKIKNFFQKLVPQPE; Cathelin-related antimicrobial peptide; UniProt P51437 135-172, looked up) [reference compound]”, the “The initial day (first illness signs)” value in experiment [1] (0.2 mg/kg i.p. three times a week) is 10 days. Also, in experiment [1] (0.2 mg/kg i.p.), the “Score on day 18” value was 3.214, the “Score on day 29” value stood at 2.000, the “Score on day 37” value is recorded as 2.571 and the “Number of dead mice during 49 days” value is reported as 2. For the same substance, in experiment [1] (0.2 mg/kg i.p.), the “EAE score on the initial day (in brackets)” value (shortened to “EAE score on the initial day”) turned out to be 0.571. In experiment [1] (2 mg/kg i.p. three times a week), the “The initial day (first illness signs)” value was determined as 11 days. In experiment [1] (2 mg/kg i.p.), the “Score on day 18” value is listed as 2.643, the “Score on day 29” value stood at 2.643, the “Score on day 37” value was determined as 2.143 and the “Number of dead mice during 49 days” value was found to be 2. Moreover, in experiment [1] (2 mg/kg i.p.), the “EAE score on the initial day” value is reported as 0.143.

As for “H-His-Phe-Glu-Asp-Trp-Ile-Asp-His-Phe-Glu-Asp-Trp-Ile-Asp-OH (H-HFEDWIDHFEDWID-OH) [DAP-1]”, the “inflammatory cytokine secretion in splenocytes” value in experiment [2] is listed as “significantly decease inflammatory cytokine secretion”. Also, the “inflammatory cytokine secretion in keratinocytes” value in experiment [3] is given as “significantly decease inflammatory cytokine secretion”.

As to “H-Phe-Ala-Arg-Lys-Gly-Ala-Leu-Arg-Gln-OH (H-FARKGALRQ-OH) [AWOT-1]”, the “cytokine secretion in keratinocytes stimulated by LPS, TNFα, or IL-17” value (“cytokine secretion … or IL-17” for short) in experiment [4] is “effective in decreasing cytokine secretion”.

“H-Phe-Ala-Arg-Lys-Gly-Ala-Leu-Arg-Gln-OH-acetate salt (H-FARKGALRQ-OH; also: acetate salt) [PDY-1]”: in experiment [4], the “cytokine secretion from LPS and TNFα activated keratinocytes” value is reported as “decrease cytokine secretion”; the “cytokine secretion from IL-17A activated keratinocytes” value is reported as “decrease cytokine secretion”.

With “H-Thr-Leu-Asn-Pro-Gln-Trp-Glu-Ser-OH (H-TLNPQWES-OH) [AIP-1]”, in experiment [4], the “cytokine secretion … or IL-17” value is recorded as “effective in decreasing cytokine secretion”.

As to “Myristoyl-Phe-Ala-Arg-Lys-Gly-Ala-Leu-Arg-Gln-OH (Myristoyl-FARKGALRQ-OH; SMILES CCCCCCCCCCCCCC(=O)N[C@@H](Cc1ccccc1)C(=O)N[C@@H](C)C(=O)N[C@@H](CCCNC(=N)N)C(=O)N[C@@H](CCCCN)C(=O)NCC(=O)N[C@@H](C)C(=O)N[C@@H](CC(C)C)C(=O)N[C@@H](CCCNC(=N)N)C(=O)N[C@@H](CCC(N)=O)C(=O)O) [MPDY-1]”, the EAE severity entry in experiment [1] is “reduced EAE severity”. Besides, the “EAE score / clinical symptoms compared to the control group” value in experiment [1] (0.1 mg/kg) was “lower score during most of the experiment days”. For the same substance, in experiment [1] (setting [9]), the “The initial day (first illness signs)” value turned out to be 13 days and the “EAE score on the initial day” value stood at 1.000. In experiment [1] (0.1 mg/kg i.p.), the “Score on day 29” value was found to be 2.000 and the “Score on day 37” value turned out to be 1.500. The “The initial day (first illness signs)” value in experiment [1] (setting [10]) is 11 days. In addition, in experiment [1] (1 mg/kg i.p.), the “Number of dead mice during 49 days” value is given as 2 and the “EAE score on the initial day” value was 0.214. Further, the “activation of macrophages (MAC-2 positive cells per field)” value in experiment [5] was “significantly inhibited”. For the same substance, the “macrophage infiltration (Iba-1 positive cells per field)” value in experiment [6] is “dose dependent effect”. The “redness, inflammation and pruritus compared with control over the time course” value in experiment [7] is “significantly attenuated redness, inflammation and pruritus”. In experiment [4], the “cytokine secretion from LPS and TNFα activated keratinocytes” value is listed as “decrease cytokine secretion”; the “cytokine secretion from IL-17A activated keratinocytes” value is recorded as “decrease cytokine secretion”; the “cytokine secretion … or IL-17” value is recorded as “effective in decreasing cytokine secretion”. In experiment [8], the “TNFα induced IKK activation in keratinocytes” value is given as “significantly reduced” and the “concentration exhibiting the strongest inhibition of IKK activation (lowest tested)” value is 0.1 mg/mL.

Consider “Myristoyl-Phe-Ala-Arg-Lys-Gly-Ala-Leu-OH (Myristoyl-FARKGAL-OH; SMILES CCCCCCCCCCCCCC(=O)N[C@@H](Cc1ccccc1)C(=O)N[C@@H](C)C(=O)N[C@@H](CCCNC(=N)N)C(=O)N[C@@H](CCCCN)C(=O)NCC(=O)N[C@@H](C)C(=O)N[C@@H](CC(C)C)C(=O)O) [MPDY-1 sh]”, for which, in experiment [4], the “cytokine secretion from LPS and TNFα activated keratinocytes” value is listed as “decrease cytokine secretion”; the “cytokine secretion from IL-17A activated keratinocytes” value is “decrease cytokine secretion”.

“Myristoyl-Phe-Ala-Arg-Lys-Gly-Ala-Leu-OH-trifluoracetate salt (Myristoyl-FARKGAL-OH; also: trifluoracetate salt) [AIP-2]”: in experiment [4], the “cytokine secretion … or IL-17” value is recorded as “effective in decreasing cytokine secretion”.

Regarding “Myristoyl-Thru-Arg-Lys-Arg-Gln-Arg-Ala-Met-Arg-Arg-Arg-Val-His-Gln-Ile-Asn-Gly-OH (Myristoyl-TRKRQRAMRRRVHQING-OH; SMILES CCCCCCCCCCCCCC(=O)N[C@H](C(=O)N[C@@H](CCCNC(=N)N)C(=O)N[C@@H](CCCCN)C(=O)N[C@@H](CCCNC(=N)N)C(=O)N[C@@H](CCC(N)=O)C(=O)N[C@@H](CCCNC(=N)N)C(=O)N[C@@H](C)C(=O)N[C@@H](CCSC)C(=O)N[C@@H](CCCNC(=N)N)C(=O)N[C@@H](CCCNC(=N)N)C(=O)N[C@@H](CCCNC(=N)N)C(=O)N[C@H](C(=O)N[C@@H](Cc1c[nH]cn1)C(=O)N[C@@H](CCC(N)=O)C(=O)N[C@H](C(=O)N[C@@H](CC(N)=O)C(=O)NCC(=O)O)[C@@H](C)CC)C(C)C)[C@@H](C)O) [MPE-1]”, the EAE severity entry in experiment [1] is “reduced EAE severity”. In experiment [1] (setting [9]), the “The initial day (first illness signs)” value amounted to 11 days and the “EAE score on the initial day” value is 0.429. In addition, the “The initial day (first illness signs)” value in experiment [1] (setting [10]) was 10 days. Also, in experiment [1] (1 mg/kg i.p.), the “Number of dead mice during 49 days” value stood at 4 and the “EAE score on the initial day” value is recorded as 0.429. For the same substance, the “average group score at the end of the experiment (day 42)” value in experiment [1] (control group 2.86) is recorded as 2.00.

In the case of “Palmitoyl-Phe-Ala-Arg-Lys-Gly-Ala-Leu-Arg-Gln-OH-acetate salt (Palmitoyl-FARKGALRQ-OH; also: acetate salt) [PPDY-1]”, the “cytokine secretion … or IL-17” value in experiment [4] was “effective in decreasing cytokine secretion”.
